In general, IC50 refers to the concentration that gives 50% inhibition.

Read-outs that look alike come from different tables or passages of the source.

The target of this assay is DCN1 (DCUND1) protein PONY domain (Homo sapiens (Human), UniProt Q96GG9). In words: TR-FRET assay (binding to DCN-1, displacement of FAM-labeled probe). Summed up:
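Compounds read at 1, 5 and 24 h, 0.1% final DMSO, by TR-FRET between terbium-streptavidin on biotinylated DCN1 PONY domain (E. coli) and a FAM-tagged non-covalent inhibitor probe. Two setups used, 5 nM protein with 20 nM labelled probe, or 0.31 nM protein with 100 nM labelled plus 800 nM unlabelled probe; buffer had TritonX and 200 mM NaCl. % activity relative to high (with probe) and low (without probe) controls.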
A general note: In TR-FRET formats the signal depends on donor and acceptor labels being close together.

The mark [1] stands for this setting: 24 hr after treatment with compound, read-out: TR FRET IC50 24 hr.
Setting [2] is: TR FRET IC50 1 hr (nM), 1 hr after treatment with compound.

DCN1 (DCUND1) protein PONY domain, sequence (Q96GG9 60-248): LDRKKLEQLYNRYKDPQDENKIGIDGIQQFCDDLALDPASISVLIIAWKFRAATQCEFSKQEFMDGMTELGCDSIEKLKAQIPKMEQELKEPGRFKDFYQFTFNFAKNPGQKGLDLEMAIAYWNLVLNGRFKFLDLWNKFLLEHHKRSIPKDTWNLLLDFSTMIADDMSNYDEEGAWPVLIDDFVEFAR

Take `C=C(C(=O)NCc1cccc([C@@H]2c3cnn(-c4ccccc4)c3N(CC)C(=O)[C@@H]2NC(=O)c2nccc(C(F)(F)F)n2)c1)C(C)N1CC2(COC2)C1` (stereo partly drawn) [Compound I-377, N-((4R,5R)-7-ethyl-4-(3-((2-methylene-3-(2-oxa-6-azaspiro[3.3]heptan-6-yl)butanamido)methyl)phenyl)-6-oxo-1-phenyl-4,5,6,7-tetrahydro-1H-pyrazolo[3,4-b]pyridin-5-yl)-4-(trifluoromethyl)pyrimidine-2-carboxamide]: the IC50 was 200 to 1000 nM under setting [1] and 1000 to 3000 nM under setting [2].

For the compound `CCN1C(=O)[C@@H](NC(=O)c2nccc(C(F)(F)F)n2)[C@H](c2cccc(NC(=O)/C=C/C(=O)N(C)C)c2)c2c(C)nn(-c3ccccc3)c21` [Compound I-245], the IC50 was 1000 to 3000 nM under setting [1] and 1000 to 3000 nM under setting [2].

As to `CCN1C(=O)[C@H](NC(=O)c2cccc(C(F)(F)F)c2)[C@@H](c2cccc(NC(=O)/C=C/CN(C)C)c2)c2c(CO)nn(-c3ccccc3)c21` (racemic) [Compound I-213, ˜{N}—[˜{rac}-(4˜{S},5˜{R})-7-ethyl-3-(hydroxymethyl)-6-oxo-1-phenyl-4-[3-[[˜{rac}-(˜{E})-4-(dimethylamino)but-2-enoyl]amino]phenyl]-4,5-dihydropyrazolo[3,4-b]pyridin-5-yl]-3-(trifluoromethyl)benzamide], the IC50 reads like this: under setting [1], 200 to 1000 nM; under setting [2], 1000 to 3000 nM.

For the compound `C=C(C(=O)N(C)Cc1cccc([C@@H]2c3cnn(-c4ccccc4)c3N(CC)C(=O)[C@H]2NC(=O)c2ccn(C(F)(F)F)n2)c1)C(C)N(C)C1COC1` (stereo partly shown) [Compound I-313], the IC50 is at most 200 nM under setting [1] and 1000 to 3000 nM under setting [2].

For `C=C(CN1CCOCC1)C(=O)NCc1cccc([C@@H]2c3cnn(-c4ccccc4)c3N(CC)C(=O)[C@H]2NC(=O)c2ccn(CC(F)F)n2)c1` [Compound I-364], the IC50 reads like this: under setting [1], at most 200 nM; under setting [2], 200 to 1000 nM.

Take `C=C(CN1C[C@@H]2C[C@H]1CO2)C(=O)NCc1cccc([C@@H]2c3cnn(-c4ccccc4)c3N(CC)C(=O)[C@@H]2NC(=O)c2cccc(C(F)(F)F)c2)c1` [Compound I-144]: the IC50 is, setting by setting: under setting [1], 200 to 1000 nM; under setting [2], 1000 to 3000 nM.

For the compound `C=C(CN1CC2(CCO2)C1)C(=O)NCc1cccc([C@@H]2c3cnn(-c4ccccc4)c3N(CC)C(=O)[C@H]2NC(=O)c2cccc(C(F)(F)F)c2)c1` [Compound I-63], the IC50 runs as follows: under setting [1], at most 200 nM; (read-out: TR FRET IC50 1 hr, 1 hr after treatment with compound) at most 200 nM.

On to `C/C=C(\CN1CC2CC(C1)O2)C(=O)Nc1cccc([C@@H]2c3cnn(-c4ccccc4)c3N(CC)C(=O)[C@H]2NC(=O)c2nccc(C(F)(F)F)n2)c1` [Compound I-337, N-((4R,5S)-4-(3-((E)-2-((6-oxa-3-azabicyclo[3.1.1]heptan-3-yl)methyl)but-2-enamido)phenyl)-7-ethyl-6-oxo-1-phenyl-4,5,6,7-tetrahydro-1H-pyrazolo[3,4-b]pyridin-5-yl)-4-(trifluoromethyl)pyrimidine-2-carboxamide], for which the IC50 is at most 200 nM under setting [1] and 200 to 1000 nM under setting [2].

With `CCC(=O)NCc1cccc([C@@H]2c3cnn(-c4ccccc4)c3N(CC)C(=O)[C@H]2NC(=O)c2nccc(C(F)(F)F)n2)c1` [Compound I-358], the IC50 is 1000 to 3000 nM under setting [1] and 1000 to 3000 nM under setting [2].

As to `CCN1C(=O)[C@@H](NC(=O)c2nccc(C(F)(F)F)n2)[C@H](c2cccc(CN3CC=CS3(=O)=O)c2)c2cnn(-c3ccccc3)c21` [Compound I-263, N-((4R,5S)-4-(3-((1,1-dioxidoisothiazol-2 (3H)-yl)methyl)phenyl)-7-ethyl-6-oxo-1-phenyl-4,5,6,7-tetrahydro-1H-pyrazolo[3,4-b]pyridin-5-yl)-4-(trifluoromethyl)pyrimidine-2-carboxamide], the IC50 is, setting by setting: under setting [1], 1000 to 3000 nM; under setting [2], 1000 to 3000 nM.

Consider `CCN1C(=O)[C@@H](NC(=O)c2cccc(C(F)(F)F)c2)[C@H](c2ccccc2CNC#N)c2c(C)nn(-c3ccccc3)c21` (racemic) [Compound I-149], for which the IC50 is 200 to 1000 nM under setting [1] and 1000 to 3000 nM under setting [2].

With `CCN1C(=O)[C@@H](NC(=O)c2cccc(C(F)(F)F)c2)[C@H](c2cccc(CN(C)C#N)c2)c2cnn(-c3ccccc3)c21` (racemic) [Compound I-104], the IC50 under setting [1] was in the range of 1000 to 3000 nM and the IC50 under setting [2] fell in the range of 1000 to 3000 nM.

As for `CCN1C(=O)[C@@H](NC(=O)c2cccc(C(F)(F)F)c2)[C@H](c2cccc(CNC(=O)/C(C)=C/C(=O)OC)c2)c2cnn(-c3ccccc3)c21` [Compound I-95], the IC50 under setting [1] fell in the range of 1000 to 3000 nM and the IC50 under setting [2] fell in the range of 1000 to 3000 nM.

`CCN1C(=O)[C@@H](NC(=O)c2cccc(C(F)(F)F)c2)[C@H](c2cccc(CN(C)C/C=C/C(=O)N(C)C)c2)c2cnn(-c3ccccc3)c21` [Compound I-339]: the IC50 fell in the range of 1000 to 3000 nM under setting [1] and 1000 to 3000 nM under setting [2].

`CCN1C(=O)[C@@H](NC(=O)c2cccc(C(F)(F)F)c2)[C@H](c2ccccc2CNC(=O)C(C)Cl)c2cnn(-c3ccccc3)c21` (mixture of isomers) [Compound I-114]: the IC50 under setting [1] was in the range of 1000 to 3000 nM and the IC50 under setting [2] lay within 1000 to 3000 nM.

Take `C=C(CN1CC(F)(F)C1)C(=O)NCc1cccc([C@@H]2c3cnn(-c4ccccc4)c3N(CC)C(=O)[C@H]2NC(=O)c2nccc(C(F)(F)F)n2)c1` [Compound I-261]: the IC50 is at most 200 nM under setting [1] and 200 to 1000 nM under setting [2].

As for `CCN1C(=O)[C@H](NC(=O)c2cccc(C(F)(F)F)c2)[C@@H](c2cccc(NC(=O)C34CC3C4)c2)c2c(C)nn(-c3ccccc3)c21` (mixture of isomers) [Compound I-80], the IC50 reads like this: under setting [1], 1000 to 3000 nM; under setting [2], 1000 to 3000 nM.

In the case of `C=C(CN1CC2(COC2)C1)C(=O)NCc1cccc([C@H]2c3c(C)nn(-c4ccccc4)c3N(CC)C(=O)[C@H]2NC(=O)c2cccc(C(F)(F)F)c2)c1` [Compound I-304], the IC50 was 200 to 1000 nM under setting [1] and 1000 to 3000 nM under setting [2].

As for `C=C(CN1CCOCC1)C(=O)N(C)Cc1cccc([C@@H]2c3cnn(-c4ccccc4)c3N(CC)C(=O)[C@H]2NC(=O)c2ccn(C(F)(F)F)n2)c1` [Compound I-295], the IC50 was at most 200 nM under setting [1] and 1000 to 3000 nM under setting [2].

As for `C=C(CN1CCOCC1)C(=O)NCc1cccc([C@H]2c3c(C)nn(-c4ccccc4)c3N(CC)C(=O)[C@@H]2NC(=O)c2cccc(C(F)(F)F)c2)c1` [Compound I-285], the IC50 was at most 200 nM under setting [1] and 1000 to 3000 nM under setting [2].

Values taken from patent publication US12435087B2, “Modulators of DCN-1 and methods of use thereof” (Cellarity, Inc., priority 2023, dated 2025).
